In publication PMC9953004, “Scandium-44 Radiolabeled Peptide and Peptidomimetic Conjugates Targeting Neuropilin-1 Co-Receptor as Potential Tools for Cancer Diagnosis and Anti-Angiogenic Therapy” (Biomedicines, 2023):
Where a SMILES comes first, the peptide text is derived from it. Where no end group is shown, it is not given here. Side-chain parts run from the residue outwards. [ ]: non-standard residue; d: D form. The star is where a group is joined. DOTA = O=C(O)CN1CCN(CC(=O)O)CCN(CC(=O)*)CCN(CC(=O)O)CC1; hArg = N=C(N)NCCCC[C@H](N)C(=O)O; Dab = NCC[C@H](N)C(=O)O; Ahx = NCCCCCC(=O)O

Biological target: T1, VEGF-A165/NRP-1 complex (Homo sapiens, UniProt O14786)
T1 construct: purchased BioLegend (NRP-1); Abcam (bt-VEGF-A165)
T1 sequence (O14786 22-641 limits assumed): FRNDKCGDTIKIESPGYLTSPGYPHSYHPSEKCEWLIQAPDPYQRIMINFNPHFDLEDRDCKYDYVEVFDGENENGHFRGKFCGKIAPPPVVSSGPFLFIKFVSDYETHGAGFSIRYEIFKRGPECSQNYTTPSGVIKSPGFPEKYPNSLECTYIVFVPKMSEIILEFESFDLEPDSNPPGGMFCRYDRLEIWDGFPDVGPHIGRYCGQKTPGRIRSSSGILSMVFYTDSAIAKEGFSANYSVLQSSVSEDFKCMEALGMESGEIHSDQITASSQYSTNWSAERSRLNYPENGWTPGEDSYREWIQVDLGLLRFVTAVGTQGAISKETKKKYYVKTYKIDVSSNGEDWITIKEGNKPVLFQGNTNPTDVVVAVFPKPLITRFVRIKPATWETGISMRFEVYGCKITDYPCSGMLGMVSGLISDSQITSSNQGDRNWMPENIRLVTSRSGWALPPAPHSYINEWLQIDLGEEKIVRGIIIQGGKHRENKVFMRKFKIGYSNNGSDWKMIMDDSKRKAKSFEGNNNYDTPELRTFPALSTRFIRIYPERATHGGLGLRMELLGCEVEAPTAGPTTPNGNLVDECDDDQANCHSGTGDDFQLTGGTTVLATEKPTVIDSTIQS
Experiment: Competitive NRP-1-binding inhibition assay (competitive ELISA, bt-VEGF-A165 vs coated NRP-1)
Settings: for logIC50 ± SD / IC50: inhibition of VEGF-A165/NRP-1 complex formation, mean ± SD, n = 3; for binding affinity for NRP-1: summary of competitive ELISA results
Description: The study of biological activity (inhibition of VEGF-A165/NRP-1 binding) of Sc-1, Sc-1bis, Sc-2, Sc-3 and Ga-3 compounds was tested by competitive ELISA test. The method used was similar to the one previously described. Briefly, the first step was to coat the bottom surface of a 96-well plate using 100 µL (200 ng/well) of recombinant human NRP-1 and incubate overnight at 4 °C. Nonspecific binding was blocked with 0.5% BSA (bovine serum albumin) in PBS. Following this, 50 µL of the solution of tested compound in PBS, in the selected concentrations (100 [µM], 50 [µM], 25 [µM], 12.5 [µM] and […]), and 50 µL (400 ng/mL) of human (bt)-VEGF-A165 in PBS containing 4 µg/mL of heparin were added. After 2 h of incubation at room temperature, the plate was washed and treated with a streptavidin–horseradish peroxidase conjugate in PBS (1:100) for 45 min. After the final wash, the chemiluminescence was quantified immediately after addition of 100 μL chemiluminescent substrate. Wells incubated with (bt)-VEGF-A165 served only as positive control (P), while wells not coated with NRP-1 were used as negative control (NS). Percentages of inhibition were calculated according to the following formula. % inhibition=100% −(S−NS)·100%/P−NS where: S—measured signal, NS—negative control signal, P—positive control signal. Test IC50 [µM] values (mean ± SD of three independent experiments) were determined by nonlinear regression analysis (log(inhibitor) vs. normalized response—variable slope) generated in GraphPad Prism 9.0.0 program (Graph Pad, San Diego, CA, USA).

Compound	logIC50 ± SD	binding affinity for NRP-1	IC50 [µM]
CC(C)C[C@H](NC(=O)[C@H](Cc1c[nH]c2ccccc12)NC(=O)[C@@H](NC(=O)[C@H](C)NC(=O)[C@@H](N)CCCCNC(=O)CN1CCN(CC(=O)O)CCN(CC(=O)O)CCN(CC(=O)O)CC1)[C@@H](C)O)C(=O)N1CCC[C@H]1C(=O)N1CCC[C@H]1C(=O)N[C@@H](CCCNC(=N)N)C(=O)O [Sc-1bis, Lys(DOTA-Sc)-A7R] (H-K(DOTA)ATWLPPR-OH)	−4.74 ± 0.01	high binding affinity	–
CC(C)C[C@@H](NC(=O)[C@H]1CCCN1C(=O)[C@H]1CCCN1C(=O)[C@H](N)CCCNC(=N)N)C(=O)N[C@H](Cc1c[nH]c2ccccc12)C(=O)N[C@@H](C(=O)N[C@H](C)C(=O)N[C@H](CCCCNC(=O)CN1CCN(CC(=O)O)CCN(CC(=O)O)CCN(CC(=O)O)CC1)C(=O)O)[C@H](C)O [Ga-3, ^DR7A-^DLys(DOTA-Ga)] (H-[dR][dP][dP][dL][dW][dT][dA][dK](DOTA)-OH)	–	–	> 100
CC(C)C[C@H](NC(=O)[C@H](Cc1c[nH]c2ccccc12)NC(=O)[C@@H](NC(=O)[C@H](C)NC(=O)CCCCCNC(=O)CN1CCN(CC(=O)O)CCN(CC(=O)O)CCN(CC(=O)O)CC1)[C@@H](C)O)C(=O)N1CCC[C@H]1C(=O)N1CCC[C@H]1C(=O)N[C@@H](CCCNC(=N)N)C(=O)O [Sc-1, Sc-DOTA-Ahx-A7R] ({DOTA-Ahx}-ATWLPPR-OH)	−4.65 ± 0.12	high binding affinity	–
CC(C)C[C@@H](NC(=O)[C@H]1CCCN1C(=O)[C@H]1CCCN1C(=O)[C@H](N)CCCNC(=N)N)C(=O)N[C@H](Cc1c[nH]c2ccccc12)C(=O)N[C@@H](C(=O)N[C@H](C)C(=O)O)[C@H](C)O [^DR7A, DArg-DPro-DPro-DLeu-DTrp-DThr-DAla, reference compound] (H-[dR][dP][dP][dL][dW][dT][dA]-OH; C-terminus assumed)	–	very low binding affinity	> 100

The remaining lines, values ahead:

logIC50 ± SD	binding affinity for NRP-1	IC50 [µM]	Compound
−5.32 ± 0.12	high binding affinity	–	N=C(N)NCCCC[C@H](N)C(=O)NCCCC[C@H](N)C(=O)N[C@@H](CCN)C(=O)N1CCC[C@H]1C(=O)N[C@@H](CCCNC(=N)N)C(=O)O [K4R, Lys(hArg)-Dab-Pro-Arg] (H-K(hArg)[Dab]PR-OH)
–	very low binding affinity	–	CC(C)C[C@@H](NC(=O)[C@H]1CCCN1C(=O)[C@H]1CCCN1C(=O)[C@H](N)CCCNC(=N)N)C(=O)N[C@H](Cc1c[nH]c2ccccc12)C(=O)N[C@@H](C(=O)N[C@H](C)C(=O)N[C@H](CCCCNC(=O)CN1CCN(CC(=O)O)CCN(CC(=O)O)CCN(CC(=O)O)CC1)C(=O)O)[C@H](C)O [Sc-3, ^DR7A-^DLys(DOTA-Sc)] (H-[dR][dP][dP][dL][dW][dT][dA][dK](DOTA)-OH)
−4.74 ± 0.02	high binding affinity	–	ATWLPPR-OH [A7R, Ala-Thr-Trp-Leu-Pro-Pro-Arg, reference compound]
−4.73 ± 0.03	high binding affinity	–	N=C(N)NCCCC[C@H](N)C(=O)NCCCC[C@H](N)C(=O)N[C@@H](CCNC(=O)CCCCCNC(=O)CN1CCN(CC(=O)O)CCN(CC(=O)O)CCN(CC(=O)O)CC1)C(=O)N1CCC[C@H]1C(=O)N[C@@H](CCCNC(=N)N)C(=O)O [Sc-2, Lys(hArg)-Dab(Ahx-DOTA-Sc)-Pro-Arg] (H-K(hArg)[Dab]([Ahx-DOTA])PR-OH)
